Assay results reported in US20130165428A1, “XANTHINE DERIVATIVES, THE PREPARATION THEREOF AND THEIR USE AS PHARMACEUTICAL COMPOSITIONS” (Boehringer Ingelheim Pharma GmbH & Co. KG, priority 2001, published 2013).
pIC50: −log10 of the molar value.

Molecular target: T1, DPP-IV (Homo sapiens, UniProt P27487)
T1 construct: an extract of the human colon carcinoma cell line Caco-2 is used as the DPP IV source; host or cells: Caco-2 (differentiated to induce DPP-IV expression), Nonidet-P40 solubilised extract
Test: DPP-IV assay with extract of Caco-2 cells as DPP IV source
Format: biochemical
Settings: extract of human colon carcinoma cell line Caco-2 as DPP IV source, substrate AFC 100 μM, 60 minutes, ambient temperature; read-out: DPP IV inhibition IC50
Experimental: This cell line was obtained from the American Type Culture Collection (ATCC HTB 37). […] The cell extract was obtained from cells solubilised in a buffer (10 mM Tris HCl, 0.15 M NaCl, 0.04 t.i.u. aprotinin, 0.5% Nonidet-P40, pH 8.0) by centrifugation at 35,000 g for 30 minutes at 4° C. (to remove cell debris).
The DPP-IV assay was carried out as follows:
50 μl of substrate solution (AFC; AFC is amido-4-trifluoromethylcoumarin), final concentration 100 μM, were placed in black microtitre plates. 20 μl of assay buffer (final concentrations 50 mM Tris HCl pH 7.8, 50 mM NaCl, 1% DMSO) was pipetted in. The reaction was started by the addition of 30 μl of solubilised Caco-2 protein (final concentration 0.14 μg of protein per well). The test substances under investigation were typically added prediluted to 20 μl, while the volume of assay buffer was then reduced accordingly. The reaction was carried out at ambient temperature, the incubation period was 60 minutes. […] Dummy values (corresponding to 0% activity) were obtained in mixtures with no Caco-2 protein (volume replaced by assay buffer), control values (corresponding to 100% activity) were obtained in mixtures without any added substance.

T1 sequence (P27487 whole entry): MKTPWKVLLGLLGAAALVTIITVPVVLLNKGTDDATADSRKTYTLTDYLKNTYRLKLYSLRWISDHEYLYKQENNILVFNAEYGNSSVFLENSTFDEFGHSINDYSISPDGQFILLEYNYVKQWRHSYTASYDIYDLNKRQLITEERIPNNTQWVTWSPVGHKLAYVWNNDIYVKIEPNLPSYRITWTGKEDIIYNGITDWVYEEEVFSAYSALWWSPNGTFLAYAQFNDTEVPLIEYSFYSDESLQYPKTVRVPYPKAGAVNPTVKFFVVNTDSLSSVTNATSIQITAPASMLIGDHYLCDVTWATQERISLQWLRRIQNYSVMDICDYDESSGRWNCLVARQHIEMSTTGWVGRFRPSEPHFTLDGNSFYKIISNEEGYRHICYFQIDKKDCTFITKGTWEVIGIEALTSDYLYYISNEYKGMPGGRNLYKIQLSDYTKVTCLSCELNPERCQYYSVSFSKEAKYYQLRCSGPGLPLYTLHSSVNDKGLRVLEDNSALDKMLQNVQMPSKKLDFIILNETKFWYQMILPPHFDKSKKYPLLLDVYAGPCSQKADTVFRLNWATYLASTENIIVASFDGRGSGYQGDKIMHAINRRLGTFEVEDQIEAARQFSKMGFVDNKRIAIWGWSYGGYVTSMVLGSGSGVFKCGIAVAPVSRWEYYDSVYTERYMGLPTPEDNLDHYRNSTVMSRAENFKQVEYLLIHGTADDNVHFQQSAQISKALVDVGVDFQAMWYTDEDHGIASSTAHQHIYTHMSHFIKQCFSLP

SMILES	pIC50
CC(C)=CCn1c(N2CCCC(N)C2)nc2c1c(=O)n(Cc1cccc3ccccc13)c(=O)n2C (stereo not drawn) [2(127), 1-[(1-naphthyl)methyl]-3-methyl-7-(3-methyl-2-buten-1-yl)-8-(3-amino-piperidin-1-yl)-xanthine]	7.66
CC(C)=CCn1c(N2CCCC(N)C2)nc2c1c(=O)n(C)c(=O)n2CC(=O)c1ccccc1 (stereo not drawn) [2(56), 1-methyl-3-(2-phenyl-2-oxo-ethyl)-7-(3-methyl-2-buten-1-yl)-8-(3-amino-piperidin-1-yl)-xanthine]	7.19
CC(C)=CCn1c(N2CCCC(N)C2)nc2c1c(=O)n(CCc1cccc(C)c1)c(=O)n2C (stereo not drawn) [1(55), 1-[2-(3-methyl-phenyl)-ethyl]-3-methyl-7-(3-methyl-2-buten-1-yl)-8-(3-amino-piperidin-1-yl)-xanthine]	6.85
C#CCOc1cccc(C(=O)Cn2c(=O)c3c(nc(N4CCCC(N)C4)n3CC=C(C)C)n(C)c2=O)c1 (stereo not drawn) [2(85), 1-{2-oxo-2-[3-(2-propyn-1-yloxy)-phenyl]-ethyl}-3-methyl-7-(3-methyl-2-buten-1-yl)-8-(3-amino-piperidin-1-yl)-xanthine]	7.77
C=CCn1c(=O)c2c(nc(N3CCCC(N)C3)n2CC=C(C)C)n(C)c1=O (stereo not drawn) [1(21), 1-(2-propen-1-yl)-3-methyl-7-(3-methyl-2-buten-1-yl)-8-(3-amino-piperidin-1-yl)-xanthine]	6.91
CC(C)=CCn1c(N2CCCC(N)C2)nc2c1c(=O)n(Cc1ccccn1)c(=O)n2C (stereo not drawn) [2(113), 1-[(pyridin-2-yl)methyl]-3-methyl-7-(3-methyl-2-buten-1-yl)-8-(3-amino-piperidin-1-yl)-xanthine]	7.70
CC(C)=CCn1c(N2CCCC(N)C2)nc2c1c(=O)n(C(C)C)c(=O)n2C (stereo not drawn) [1(19), 1-(2-propyl)-3-methyl-7-(3-methyl-2-buten-1-yl)-8-(3-amino-piperidin-1-yl)-xanthine]	5.56
Cn1c(=O)c2c(nc(N3CCCC(N)C3)n2Cc2ccccc2)n(CC(=O)O)c1=O (stereo not drawn) [Example 6, 1-methyl-3-carboxymethyl-7-benzyl-8-(3-amino-piperidin-1-yl)-xanthine]	7.26
CC(C)=CCn1c(N2CCCC(N)C2)nc2c1c(=O)n(CCN(C)C)c(=O)n2C (stereo not drawn) [1(30), 1-[2-(dimethylamino)ethyl]-3-methyl-7-(3-methyl-2-buten-1-yl)-8-(3-amino-piperidin-1-yl)-xanthine]	5.69
Cc1cccc(-n2c(N3CCCC(N)C3)nc3c2c(=O)n(C)c(=O)n3C)c1 (stereo not drawn) [1(62), 1,3-dimethyl-7-(3-methyl-phenyl)-8-(3-amino-piperidin-1-yl)-xanthine]	6.78
CC(C)=CCn1c(N2CCCC(N)C2)nc2c1c(=O)n(C)c(=O)n2CCc1ccc(F)cc1 (stereo not drawn) [2(77), 1-methyl-3-[2-(4-fluoro-phenyl)-ethyl]-7-(3-methyl-2-buten-1-yl)-8-(3-amino-piperidin-1-yl)-xanthine]	7.66

Results, then the compound that gave them:

pIC50	SMILES
6.64	CC(C)=CCn1c(N[C@@H]2CCCC[C@@H]2N)nc2c1c(=O)n(C)c(=O)n2C (relative stereo) [1(6), 1,3-dimethyl-7-(3-methyl-2-buten-1-yl)-8-[(cis-2-amino-cyclohexyl)amino]-xanthine]
6.78	COCCn1c(=O)c2c(nc(N3CCCC(N)C3)n2CC=C(C)C)n(C)c1=O (stereo not drawn) [1(28), 1-(2-methoxyethyl)-3-methyl-7-(3-methyl-2-buten-1-yl)-8-(3-amino-piperidin-1-yl)-xanthine]
7.02	CC(C)=CCn1c(N(C)CCN)nc2c1c(=O)n(C)c(=O)n2C [1(35), 1,3-dimethyl-7-(3-methyl-2-buten-1-yl)-8-[N-(2-aminoethyl)-methylamino]-xanthine]
7.11	CCn1c(=O)c2c(nc(N3CCCC(N)C3)n2CC=C(C)C)n(C)c1=O (stereo not drawn) [1(16), 1-ethyl-3-methyl-7-(3-methyl-2-buten-1-yl)-8-(3-amino-piperidin-1-yl)-xanthine]
7.18	CC(C)=CCn1c(N2CCC[C@H](N)C2)nc2c1c(=O)n(CCc1cccc(O)c1)c(=O)n2C [2(22), 1-[2-(3-hydroxy-phenyl)-ethyl]-3-methyl-7-(3-methyl-2-buten-1-yl)-8-((S)-3-amino-piperidin-1-yl)-xanthine]
7.24	CC(C)=CCn1c(N2CCCC(N)C2)nc2c1c(=O)n(CCc1ccccn1)c(=O)n2C (stereo not drawn) [1(60), 1-[2-(pyridin-2-yl)-ethyl]-3-methyl-7-(3-methyl-2-buten-1-yl)-8-(3-amino-piperidin-1-yl)-xanthine]
8.00	Cn1c(=O)c2c(nc(N3CCCC(N)C3)n2Cc2ccccc2C#N)n(C)c1=O (stereo not drawn) [1(121), 1,3-dimethyl-7-(2-cyano-benzyl)-8-(3-amino-piperidin-1-yl)-xanthine]
8.52	CC(C)=CCn1c(N2CCCC(N)C2)nc2c1c(=O)n(CC(=O)c1ccccc1N)c(=O)n2C (stereo not drawn) [2(136), 1-[2-(2-amino-phenyl)-2-oxo-ethyl]-3-methyl-7-(3-methyl-2-buten-1-yl)-8-(3-amino-piperidin-1-yl)-xanthine]

Same assay, conditions: read-out: DPP IV inhibition IC50

SMILES	pIC50
CC(C)=CCn1c(N(C)CC(N)C(=O)N(C)C)nc2c1c(=O)n(C)c(=O)n2C (stereo not drawn) [2(131), 1,3-dimethyl-7-(3-methyl-2-buten-1-yl)-8-[N-(2-amino-3-dimethylamino-3-oxo-propyl)-N-methyl-amino]-xanthine×trifluoroacetic acid]	6.90

System: rats
Test: Tolerability after oral administration in rats
Format: in vivo
Settings: oral administration of 30 mg/kg

SMILES	toxic side effects / tolerability
Cn1c(=O)c2c(nc(N3CCCC(N)C3)n2Cc2ccccc2)n(C)c1=O (stereo not drawn) [Example 1(2), 1,3-dimethyl-7-benzyl-8-(3-amino-piperidin-1-yl)-xanthine]	no toxic side effects could be detected

System: not given
Test: not given
Settings: not given

melting point [°C]	SMILES
168 to 170	CC(C)=CCn1c(N2CCC[C@H](N)C2)nc2c1c(=O)n(CCc1cccc(O)c1)c(=O)n2C [2(22), 1-[2-(3-hydroxy-phenyl)-ethyl]-3-methyl-7-(3-methyl-2-buten-1-yl)-8-((S)-3-amino-piperidin-1-yl)-xanthine]
117 to 120	CC(C)=CCn1c(N2CCCC(N)C2)nc2c1c(=O)n(CCc1ccccn1)c(=O)n2C (stereo not drawn) [1(60), 1-[2-(pyridin-2-yl)-ethyl]-3-methyl-7-(3-methyl-2-buten-1-yl)-8-(3-amino-piperidin-1-yl)-xanthine]
212 to 215	Cn1c(=O)c2c(nc(N3CCCC(N)C3)n2Cc2ccccc2)n(CC(=O)O)c1=O (stereo not drawn) [Example 6, 1-methyl-3-carboxymethyl-7-benzyl-8-(3-amino-piperidin-1-yl)-xanthine]
